Source: patent US8927009B2 (AbbVie Inc., priority 2009, dated 2015)
Structures can show the parent of a compound that is named as a salt.

Legend:
Format in all cases: physicochemical
[1] = Solubility in lipid solvents and solvent mixtures in ambient conditions; conditions: listed as bis-HCl salt
Experimental: Solubility of ABT-263 parent (free base, crystalline Form I) and ABT-263 bis-HCl salt was tested in a variety of lipid solvents and solvent mixtures in ambient conditions. Trademarked solvents in this study, unless identified hereinabove, are as follows (substantially equivalent products from other manufacturers can be substituted if available): • Miglyol 810™ of Sasol: caprylic/capric triglycerides; • Capmul MCM™ of Abitec: glyceryl caprylate/caprate; • Captex 300™ of Abitec: caprylic/capric triglycerides; • Labrafil M 2125 CS™ of Gattefossé: polyoxyethylene glyceryl linoleate; • Tween 20™ of Uniqema: polysorbate 20; • Labrasol™ of Gattefossé: polyoxyethylene glyceryl caprylate/caprate; • Cremophor RH40™: polyoxyethyene (40) hydrogenated castor oil. “PE-91” is Phosal 53 MCT™+ethanol, 9:1 by volume. “LOT-343” is Labrafil M 1944 CS™+oleic acid+Tween 80™, 30:40:30 by weight.
In some cases, indicated in Table 4 by an asterisk (*), solubility was initially high but precipitation occurred upon standing.

[2] = Drug solubility in ternary excipient systems; parameters: key: ✓: vehicle miscible, or drug fully dissolved in vehicle; conditions: 10% salt, 20% free base
From the text: (§1) Solvents evaluated included Labrafil M 1944 CS™, Imwitor 742™, oleic acid, Capmul PG-8™, Capmul PG-12™, Lauroglycol 90™ (propylene glycol monolaurate, available from Gattefossé) and Phosal 53 MCT™. Surfactants evaluated included Tween 80™, Cremophor RH40™, Gelucire 44/14™ (polyoxyethylene glyceryl laurate, available from Gattefossé) and Labrasol™.

[3] = Drug solubility in ternary excipient systems; parameters: key: ✓: vehicle miscible, or drug fully dissolved in vehicle; x: vehicle immiscible or miscible but turbid, or residual solids present (due to undissolved drug or precipitation); conditions: 10% salt, 20% free base
From the text: as §1

Solubility ([1]; in Capmul PG-8, ambient conditions): <43 mg/g | Solubility ([1]; in Capmul PG-12, ambient conditions): <39 mg/g | Solubility ([1]; in Captex 300, ambient conditions): <52 mg/g | Solubility ([1]; in Labrafil M 1944 CS, ambient conditions): <45 mg/g | Solubility ([1]; in Labrafil M 2125 CS, ambient conditions): <44 mg/g | Solubility ([1]; in PE-91 (Phosal 53 MCT + ethanol 9:1 by volume), ambient conditions): 89 mg/g | Solubility ([1]; in poloxamer 124, ambient conditions): <41 mg/g | Solubility ([1]; in sesame oil, ambient conditions): <80 mg/g | ABT-263 solubility ([2]; Capmul PG-8/Labrafil M 1944 CS/Labrasol (C8LL) 40:40:20 % by weight): ✓ | ABT-263 solubility ([2]; Capmul PG-12/Labrafil M 1944 CS/Tween 80 (C12LT) 30:40:30 % by weight): ✓ | ABT-263 solubility ([2]; Capmul PG-12/Labrafil M 1944 CS/Tween 80 (C12LT) 35:40:25 % by weight): ✓ | ABT-263 solubility ([2]; Capmul PG-12/Labrafil M 1944 CS/Tween 80 (C12LT) 40:30:30 % by weight): ✓ | ABT-263 solubility ([2]; Capmul PG-12/Labrafil M 1944 CS/Tween 80 (C12LT) 45:30:25 % by weight): ✓ | ABT-263 solubility ([2]; Imwitor 742/Labrafil M 1944 CS/Cremophor RH40 (ILC) 40:40:20 % by weight, listed as salt): ✓ | ABT-263 solubility ([2]; Imwitor 742/Labrafil M 1944 CS/Cremophor RH40 (ILC) 50:30:20 % by weight, listed as salt): ✓ | ABT-263 solubility ([2]; Imwitor 742/Labrafil M 1944 CS/Cremophor RH40 (ILC) 50:40:10 % by weight, listed as salt): ✓ | ABT-263 solubility ([2]; Imwitor 742/Labrafil M 1944 CS/Cremophor RH40 (ILC) 60:30:10 % by weight, listed as salt): ✓ | ABT-263 solubility ([2]; Imwitor 742/Labrafil M 1944 CS/Labrasol (ILL) 40:40:20 % by weight, listed as salt): ✓ | ABT-263 solubility ([2]; Imwitor 742/Labrafil M 1944 CS/Labrasol (ILL) 50:30:20 % by weight, listed as salt): ✓ | ABT-263 solubility ([2]; Imwitor 742/Labrafil M 1944 CS/Labrasol (ILL) 50:40:10 % by weight, listed as salt): ✓ | ABT-263 solubility ([2]; Imwitor 742/Labrafil M 1944 CS/Labrasol (ILL) 60:30:10 % by weight, listed as salt): ✓ | ABT-263 solubility ([2]; Labrafil M 1944 CS/Imwitor 742/Tween 80 (LIT) 30:40:30 % by weight, listed as salt): ✓ | ABT-263 solubility ([2]; Labrafil M 1944 CS/Imwitor 742/Tween 80 (LIT) 30:45:25 % by weight, listed as salt): ✓ | ABT-263 solubility ([2]; Labrafil M 1944 CS/Imwitor 742/Tween 80 (LIT) 40:30:30 % by weight, listed as salt): ✓ | ABT-263 solubility ([2]; Labrafil M 1944 CS/Imwitor 742/Tween 80 (LIT) 40:35:25 % by weight, listed as salt): ✓ | ABT-263 solubility ([2]; Labrafil M 1944 CS/oleic acid/Cremophor RH40 (LOC) 30:60:10 % by weight): ✓ | ABT-263 solubility ([2]; Labrafil M 1944 CS/oleic acid/Cremophor RH40 (LOC) 40:50:10 % by weight): ✓ | ABT-263 solubility ([2]; Labrafil M 1944 CS/oleic acid/Tween 80 (LOT) 30:40:30 % by weight): ✓ | ABT-263 solubility ([2]; Labrafil M 1944 CS/oleic acid/Tween 80 (LOT) 30:45:25 % by weight): ✓ | ABT-263 solubility ([2]; Labrafil M 1944 CS/oleic acid/Tween 80 (LOT) 40:30:30 % by weight): ✓ | ABT-263 solubility ([2]; Labrafil M 1944 CS/oleic acid/Tween 80 (LOT) 40:35:25 % by weight): ✓ | ABT-263 solubility ([2]; Lauroglycol 90/Labrafil M 1944 CS/Cremophor RH40 (LLC) 45:30:25 % by weight): ✓ | ABT-263 solubility ([2]; Lauroglycol 90/Labrafil M 1944 CS/Labrasol (LLL) 40:40:20 % by weight): ✓ | ABT-263 solubility ([2]; Lauroglycol 90/Labrafil M 1944 CS/Labrasol (LLL) 50:30:20 % by weight): ✓ | ABT-263 solubility ([2]; Lauroglycol 90/Labrafil M 1944 CS/Labrasol (LLL) 50:40:10 % by weight, listed as salt): ✓ | ABT-263 solubility ([2]; Lauroglycol 90/Labrafil M 1944 CS/Labrasol (LLL) 60:30:10 % by weight, listed as salt): ✓ | ABT-263 solubility ([2]; oleic acid/Labrafil M 1944 CS/Labrasol (OLL) 40:40:20 % by weight): ✓ | ABT-263 solubility ([2]; oleic acid/Labrafil M 1944 CS/Labrasol (OLL) 50:30:20 % by weight): ✓ | ABT-263 solubility ([2]; oleic acid/Labrafil M 1944 CS/Labrasol (OLL) 50:40:10 % by weight): ✓ | ABT-263 solubility ([2]; oleic acid/Labrafil M 1944 CS/Labrasol (OLL) 60:30:10 % by weight): ✓ | ABT-263 solubility ([3]; Capmul PG-8/Labrafil M 1944 CS/Cremophor RH40 (C8LC) 40:40:20 % by weight): x | ABT-263 solubility ([3]; Capmul PG-8/Labrafil M 1944 CS/Cremophor RH40 (C8LC) 50:30:20 % by weight): x | ABT-263 solubility ([3]; Capmul PG-8/Labrafil M 1944 CS/Cremophor RH40 (C8LC) 50:40:10 % by weight): x | ABT-263 solubility ([3]; Capmul PG-8/Labrafil M 1944 CS/Cremophor RH40 (C8LC) 60:30:10 % by weight): x | ABT-263 solubility ([3]; Capmul PG-8/Labrafil M 1944 CS/Labrasol (C8LL) 50:30:20 % by weight): x | ABT-263 solubility ([3]; Capmul PG-8/Labrafil M 1944 CS/Labrasol (C8LL) 50:40:10 % by weight): x | ABT-263 solubility ([3]; Capmul PG-8/Labrafil M 1944 CS/Labrasol (C8LL) 60:30:10 % by weight): x | ABT-263 solubility ([3]; Capmul PG-8/Labrafil M 1944 CS/Tween 80 (C8LT) 30:40:30 % by weight): x | ABT-263 solubility ([3]; Capmul PG-8/Labrafil M 1944 CS/Tween 80 (C8LT) 35:40:25 % by weight): x | ABT-263 solubility ([3]; Capmul PG-8/Labrafil M 1944 CS/Tween 80 (C8LT) 40:30:30 % by weight): x | ABT-263 solubility ([3]; Capmul PG-8/Labrafil M 1944 CS/Tween 80 (C8LT) 45:30:25 % by weight): x
SMILES: CC1(C)CCC(c2ccc(Cl)cc2)=C(CN2CCN(c3ccc(C(=O)NS(=O)(=O)c4ccc(N[C@H](CCN5CCOCC5)CSc5ccccc5)c(S(=O)(=O)C(F)(F)F)c4)cc3)CC2)C1 [ABT-263 bis-HCl]
